According to publication PMC10607876, “Phenylacetyl-/Trolox- Amides: Synthesis, Sigma-1, HDAC-6, and Antioxidant Activities” (International Journal of Molecular Sciences, 2023):
Several values for one entry are separate records, joined by “and”; a condition that tells them apart may be missing. Equal values may be shown once.

Experiments:
σ-2 = target: T1, σ-2 (Rattus norvegicus, UniProt Q5U3Y7); assay: Sigma-2 competitive radioligand displacement binding (NIMH PDSP)
T1 sequence (Q5U3Y7 1-176): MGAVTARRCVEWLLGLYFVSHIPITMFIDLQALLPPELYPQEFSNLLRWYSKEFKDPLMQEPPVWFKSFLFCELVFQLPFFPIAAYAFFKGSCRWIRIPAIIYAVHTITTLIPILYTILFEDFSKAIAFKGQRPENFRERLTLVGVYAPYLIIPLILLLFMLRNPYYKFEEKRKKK
Experimental: Sigma-1 and 2 affinity experiments (Ki values) were carried out at the National Institute of Mental Health’s Psychoactive Drug Screening Program (NIMH PDSP, UNC Chapel Hill, NC). Assay details (i.e., competitive radioligand displacement conditions, etc.) are available at https://pdsp.unc.edu/pdspweb/content/PDSP%20Protocols%20II%202013-03-28.pdf (accessed on 23 August 2023). Table 2 below indicates the Ki values determined for all compounds.

[1] = Oxygen Radical Activity Capacity (ORAC) assay; conditions: for antioxidant activities (in words): ORAC; for Slopes: slope of net AUC vs concentration (2.5-50 µM), averaged, n = 3 runs, 60 min; for TEs (Trolox equivalents): slope of sample divided by slope of Trolox, ORAC after 60 min, mean ± SD, n = 3
Experimental: Compound antioxidant capacities were determined using the Oxygen Radical Activity Capacity (ORAC) Assay Kit (catalog #ab233473, Abcam, Cambridge, MA, USA) according to the manufacturer’s protocol. Briefly, the Trolox standard (0.2 mM, 50:50 v/v, water: acetone) and each test compound (0.2 mM, 50:50 v/v, water: acetone) were tested at final concentrations ranging from 2.5 µM to 50 µM in the assay. Fluorescein (150 μL) probe solution and 25 μL of Trolox or each test compound were mixed in each well of a black 96-well microplate and incubated at 37 °C for 30 min. […] Trolox equivalents (TE) for the test compounds were obtained by directly dividing the slopes of each sample by the slope of the Trolox from its standard curve (Table 4). […] Curiously, unlike the phenolic Trolox derivatives (i.e., 3, 4, 8, 12, and 20), compound 18′s antioxidant activity can be attributed to the -NH-OH moiety.

HDAC-6 = target: T2, HDAC-6 (Homo sapiens, UniProt Q9UBN7); assay: HDAC fluorescence activity assay (Reaction Biology, Howitz conditions); conditions: HDAC-6 IC50, fluorogenic acetylated lysine substrate, 10-dose IC50 mode, threefold serial dilutions
T2 sequence (Q9UBN7 1-1215): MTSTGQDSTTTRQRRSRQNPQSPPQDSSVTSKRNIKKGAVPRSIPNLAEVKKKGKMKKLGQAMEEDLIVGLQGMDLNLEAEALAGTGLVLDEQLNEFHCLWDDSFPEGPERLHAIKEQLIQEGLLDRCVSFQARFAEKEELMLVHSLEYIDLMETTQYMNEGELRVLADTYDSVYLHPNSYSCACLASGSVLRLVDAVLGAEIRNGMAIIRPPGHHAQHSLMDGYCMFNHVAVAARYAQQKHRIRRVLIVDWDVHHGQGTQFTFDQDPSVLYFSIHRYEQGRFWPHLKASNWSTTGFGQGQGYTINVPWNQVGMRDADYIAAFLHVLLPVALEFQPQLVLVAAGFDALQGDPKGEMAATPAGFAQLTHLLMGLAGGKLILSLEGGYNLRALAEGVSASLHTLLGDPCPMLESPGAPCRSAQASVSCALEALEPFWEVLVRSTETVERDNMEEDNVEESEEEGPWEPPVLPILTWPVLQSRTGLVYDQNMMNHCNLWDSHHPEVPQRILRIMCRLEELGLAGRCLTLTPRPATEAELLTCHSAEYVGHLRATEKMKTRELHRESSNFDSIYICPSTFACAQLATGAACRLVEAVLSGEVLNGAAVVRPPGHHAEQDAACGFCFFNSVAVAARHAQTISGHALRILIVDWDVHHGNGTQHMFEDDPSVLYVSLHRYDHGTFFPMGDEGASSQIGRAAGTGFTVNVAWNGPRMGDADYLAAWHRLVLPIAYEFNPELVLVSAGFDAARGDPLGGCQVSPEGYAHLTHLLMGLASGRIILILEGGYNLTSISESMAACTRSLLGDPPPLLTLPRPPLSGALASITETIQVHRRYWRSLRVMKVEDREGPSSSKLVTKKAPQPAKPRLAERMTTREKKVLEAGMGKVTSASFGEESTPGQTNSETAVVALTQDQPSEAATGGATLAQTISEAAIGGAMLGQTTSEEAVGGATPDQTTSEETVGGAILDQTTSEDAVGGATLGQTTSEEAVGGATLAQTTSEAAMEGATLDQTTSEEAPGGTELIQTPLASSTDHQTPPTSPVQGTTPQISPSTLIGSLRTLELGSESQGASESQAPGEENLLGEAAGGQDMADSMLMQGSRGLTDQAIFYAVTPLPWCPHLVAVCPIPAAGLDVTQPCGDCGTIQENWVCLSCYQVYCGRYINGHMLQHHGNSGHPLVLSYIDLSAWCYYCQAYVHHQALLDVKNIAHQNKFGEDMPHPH

SMILES | Ki (σ-2) | antioxidant activities (in words) [1] | Slopes [1] | TEs (Trolox equivalents) [1] | IC50 (HDAC-6)
COC(=O)c1ccc(CNC(=O)Cc2ccccc2)cc1 [Compound 1, Methyl 4-((2-phenylacetamido)methyl) benzoate] | > 10 µM | – | – | – | –
COC(=O)c1ccc(CNC(=O)C2(C)CCc3c(C)c(O)c(C)c(C)c3O2)cc1 (stereo not shown) [Compound 2, Methyl 4-((6-hydroxy-2,5,7,8-tetramethylchromane-2-carboxamido)methyl)benzoate] | 7.47 µM | – | – | – | –
Cc1c(C)c2c(c(C)c1O)CCC(C)(C(=O)Nc1nc3ccccc3o1)O2 (stereo not shown) [Compound 3, N-(Benzo[d]oxazol-2-yl)-6-hydroxy-2,5,7,8-tetramethylchromane-2-carboxamide] | > 10 µM | potent | 205.61 ± 4.38 | 1.70 ± 0.04 TE | –
Cc1c(C)c2c(c(C)c1O)CCC(C)(C(=O)NCc1ccc(S(N)(=O)=O)cc1)O2 (stereo not shown) [Compound 4, 6-Hydroxy-2,5,7,8-tetramethyl-N-(4-sulfamoylbenzyl) chromane-2-carboxamide] | > 10 µM | potent | 155.07 ± 2.39 | 1.28 ± 0.02 TE | –
NNC(=O)c1ccc(CNC(=O)Cc2ccccc2)cc1 [Compound 5, N-(4-(Hydrazinecarbonyl)benzyl)-2-phenylacetamide] | > 10 µM | – | – | – | –
Cc1c(C)c2c(c(C)c1O)CCC(C)(C(=O)Nc1nc3ccccc3[nH]1)O2 (stereo not shown) [Compound 6, N-(1H-benzo[d]imidazol-2-yl)-6-hydroxy-2,5,7,8-tetramethylchromane-2-carboxamide] | 7.49 µM | – | – | – | –
Cc1c(C)c2c(c(C)c1O)CCC(C)(C(=O)Nc1cc3ccccc3cn1)O2 (stereo not shown) [Compound 7, 6-Hydroxy-N-(isoquinolin-3-yl)-2,5,7,8-tetramethylchromane-2-carboxamide] | 1.5 µM | – | – | – | –
Cc1c(C)c2c(c(C)c1O)CCC(C)(C(=O)NCc1ccc(C(=O)NO)cc1)O2 (stereo not shown) [Compound 8, 6-Hydroxy-N-(4-(hydroxycarbamoyl)benzyl)-2,5,7,8-tetramethylchromane-2-carboxamide] | > 10 µM | potent | 232.42 ± 8.98 | 1.92 TE and 1.92 ± 0.07 TE | 0.017 µM and 0.0173 µM
Cc1c(C)c2c(c(C)c1O)CCC(C)(C(=O)NCc1ccc(C(=O)NN)cc1)O2 (stereo not shown) [Compound 9, N-(4-(Hydrazinecarbonyl)benzyl)-6-hydroxy-2,5,7,8-tetramethylchromane-2-carboxamide] | > 10 µM | – | – | – | –
Cc1c(C)c2c(c(C)c1O)CCC(C)(C(=O)Nc1cnccn1)O2 (stereo not shown) [Compound 10, 6-Hydroxy-2,5,7,8-tetramethyl-N-(pyrazin-2-yl) chromane-2-carboxamide] | 5.59 µM | – | – | – | –
Cc1nc(NC(=O)C2(C)CCc3c(C)c(O)c(C)c(C)c3O2)sc1C (stereo not shown) [Compound 11, N-(4,5-Dimethylthiazol-2-yl)-6-hydroxy-2,5,7,8-tetramethylchromane-2-carboxamide] | > 10 µM | – | – | – | –
Cc1c(C)c2c(c(C)c1O)CCC(C)(C(=O)Nc1ncc[nH]1)O2 (stereo not shown) [Compound 12, 6-Hydroxy-N-(1H-imidazol-2-yl)-2,5,7,8-tetramethylchromane-2-carboxamide] | > 10 µM | potent | 151.24 ± 0.30 | 1.25 ± 0.002 TE | –
Cc1cc(NC(=O)C2(C)CCc3c(C)c(O)c(C)c(C)c3O2)no1 (stereo not shown) [Compound 13, 6-Hydroxy-2,5,7,8-tetramethyl-N-(5-methylisoxazol-3-yl)chromane-2-carboxamide] | 6.86 µM | – | – | – | –
Cc1c(C)c2c(c(C)c1O)CCC(C)(C(=O)N1CCN(c3ncccn3)CC1)O2 (stereo not shown) [Compound 14, (6-Hydroxy-2,5,7,8-tetramethylchroman-2-yl)(4-(pyrimidin-2-yl)piperazin-1-yl)methanone] | 2.49 µM | – | – | – | –
Cc1c(C)c2c(c(C)c1O)CCC(C)(C(=O)NCc1ccc3c(c1)OCO3)O2 (stereo not shown) [Compound 15, N-(Benzo[d][1,3]dioxol-5-ylmethyl)-6-hydroxy-2,5,7,8-tetramethylchromane-2-carboxamide] | 6.98 µM | – | – | – | –
NS(=O)(=O)c1ccc(CNC(=O)Cc2ccccc2)cc1 [Compound 16, 2-Phenyl-N-(4-sulfamoylbenzyl) acetamide] | > 10 µM | – | – | – | –
O=C(Cc1ccccc1)NCc1ccc(C(=O)NO)cc1 [Compound 18, N-Hydroxy-4-((2-phenylacetamido)methyl)benzamide] | – | potent | 137.45 ± 1.88 | 1.13 ± 0.02 TE | 0.077 µM and 0.0779 µM
Cc1c(C)c2c(c(C)c1O)CCC(C)(C(=O)NNC(=O)c1ccc(Cl)cc1)O2 (stereo not shown) [Compound 20, N′-(4-Chlorobenzoyl)-6-hydroxy-2,5,7,8-tetramethylchromane-2-carbohydrazide] | – | potent | 177.86 ± 3.38 | 1.47 ± 0.03 TE | –
Cc1c(C)c2c(c(C)c1O)CCC(C)(C(=O)O)O2 (stereo not shown) [Trolox, 6-hydroxy-2,5,7,8-tetramethylchroman-2-carboxylic acid] | – | – | – | 1.0 TE | –
